One test concerns the target T1, human ETB receptor (Homo sapiens, UniProt P24530).
T1 construct: expressed in transfected cells; host or cells: CHO-K1 cells, pRc-CMW (so in the source) expression vector, electroporation; membranes used
T1 sequence (P24530 27-442): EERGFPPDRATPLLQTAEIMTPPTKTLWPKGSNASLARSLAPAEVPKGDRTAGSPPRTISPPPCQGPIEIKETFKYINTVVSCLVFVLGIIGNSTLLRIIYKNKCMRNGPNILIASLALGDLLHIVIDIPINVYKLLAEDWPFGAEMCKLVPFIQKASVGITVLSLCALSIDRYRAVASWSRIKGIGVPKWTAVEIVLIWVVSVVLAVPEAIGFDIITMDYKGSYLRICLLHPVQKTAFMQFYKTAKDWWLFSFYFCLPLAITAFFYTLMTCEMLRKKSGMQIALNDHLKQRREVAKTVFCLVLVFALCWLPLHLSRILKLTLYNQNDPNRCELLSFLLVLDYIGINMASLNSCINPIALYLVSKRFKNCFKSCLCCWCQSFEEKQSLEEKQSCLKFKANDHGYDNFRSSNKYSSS
Briefly: ERBA-B: [125I]-ET-1 binding, recombinant human ETB receptor expressed in CHO-K1 cells. The following applies: human cloned ETB receptor, read-out: ERBA-B IC50, human cloned receptor data. The method, then: Count filters for radioactivity in gamma counter.
The above process has also been modified by using human recombinant CHO-K1 cells.
The tissue used for human ETB was recombinant human ETB receptor expressed in CHO-K1 cells (chinese hamster ovary cells). The gene for human ETB receptor was cloned and inserted into the pRc-CMW expression vector, then transfected into CHO-K1 cells by electroporation. For binding assays, membranes (0.7 mg protein) of CHO-K1 cells expressing recombinant human ETB receptor were used.
^d Human cloned receptor data

Another test concerns the target T2, ETA (Oryctolagus cuniculus, UniProt A5A8K3).
T2 sequence (A5A8K3 21-427): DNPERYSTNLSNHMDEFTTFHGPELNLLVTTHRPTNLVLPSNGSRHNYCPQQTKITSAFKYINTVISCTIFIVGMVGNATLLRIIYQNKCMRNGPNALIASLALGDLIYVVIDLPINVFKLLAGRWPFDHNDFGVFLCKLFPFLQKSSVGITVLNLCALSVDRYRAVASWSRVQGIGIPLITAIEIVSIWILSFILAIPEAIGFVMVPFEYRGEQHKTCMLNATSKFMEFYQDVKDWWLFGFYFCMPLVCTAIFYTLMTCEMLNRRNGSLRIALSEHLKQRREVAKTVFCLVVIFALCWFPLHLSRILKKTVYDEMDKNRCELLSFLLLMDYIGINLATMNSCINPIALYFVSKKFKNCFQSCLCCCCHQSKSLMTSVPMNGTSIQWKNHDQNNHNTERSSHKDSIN
Conditions: ERBA-A IC50, [125I]-ET-1, rabbit renal artery vascular smooth muscle cells.

Method for ETA: The cells used were rabbit renal artery vascular smooth muscle cells grown in a 48-well dish (1 cm^2) (confluent cells).
The growth media was Dulbecco's Modified Eagles/Ham's F12 which contained 10% fetal bovine serum and antibiotics (penicillin/streptomycin/fungizone).
Second, remove the assay buffers, place the dish on ice, and add 150 μL of cold assay buffer described above to each well. […] Next, place dish in a 37° C., water bath for about 2 hours and gently agitate the dish every 15 minutes. Discard the radioactive incubation mixture in the sink and wash wells 3 times with 1 mL of cold phosphate buffered saline.

Take `COc1ccc(C2(O)OC(=O)C(c3ccc4c(c3)OCO4)=C2Cc2ccc(CC(=O)O)cc2)cc1` (stereo not shown) [Example 293, {4-[4-Benzo[1,3]dioxol-5-yl-2-hydroxyl-2-(4-methoxy-phenyl)-5-oxo-2,5-dihydro-furan-3-ylmethyl]-phenyl}-acetic acid]: the IC50 at human ETB receptor and against ETA was over 2500 nM each time.

Take `COC(=O)Cc1cccc(CC2=C(c3ccc4c(c3)OCO4)C(=O)OC2(O)c2ccc(OC)cc2)c1` (stereo not shown) [Example 294, {3-[4-Benzo[1,3]dioxol-5-yl-2-hydroxy-2-(4-methoxyphenyl)-5-oxo-2,5-dihydro-furan-3-ylmethyl]-phenyl}-acetic acid methyl ester]: the results for the IC50 on human ETB receptor and on ETA were 780 nM and 3.4 nM, respectively.

For the molecule `COc1ccc(C2(O)OC(=O)C(c3ccc4c(c3)OCO4)=C2Cc2cccc(CC(=O)O)c2)cc1` (stereo not shown) [Example 295, {3-[4-Benzo[1,3]dioxol-5-yl-2-hydroxy-2-(4-methoxyphenyl)-5-oxo-2,5-dihydro-furan-3-ylmethyl]-phenyl}-acetic acid], the IC50 (as a rule, the concentration at which inhibition is half-maximal) was over 2500 nM on human ETB receptor and 130 nM at ETA.

`COc1ccc(C2(O)OC(=O)C(c3ccc4c(c3)OCO4)=C2Cc2cc(C)c(OC)c(C)c2)cc1` (stereo not shown) [Example 296, 3-Benzo[1,3]dioxol-5-yl-5-hydroxy-4-(4-methoxy-3,5-dimethyl-benzyl)-5-(4-methoxy-phenyl)-5-H-furan-2-one]: the IC50 on human ETB receptor worked out at 580 nM; against ETA it was 6 nM.

Take `COc1ccc(C2(O)OC(=O)C(c3ccc4c(c3)OCO4)=C2Cc2cc(C)c(OC(C)C)c(C)c2)cc1` (stereo not shown) [Example 297, 3-Benzo[1,3]dioxol-5-yl-4-(3,5-dimethyl-4-isopropoxybenzyl)-5-hydroxy-5-(4-methoxy-phenyl)-5H-furan-2-one]: the figures for the IC50 on human ETB receptor and against ETA were 870 nM and 64 nM, respectively.

Take `CCCCCCCCOc1c(C)cc(CC2=C(c3ccc4c(c3)OCO4)C(=O)OC2(O)c2ccc(OC)cc2)cc1C` (stereo not shown) [Example 302, 3-Benzo[1,3]dioxol-5-yl-4-(3,5-dimethyl-4-octyloxybenzyl)-5-hydroxy-5-(4-methoxy-phenyl)-5H-furan-2-one]: the IC50 on human ETB receptor was 2000 nM; against ETA it was 2300 nM.

For `COc1ccc(C2(O)OC(=O)C(c3ccc4c(c3)OCO4)=C2Cc2cc(OC)cc(OC)c2)cc1` (stereo not shown) [Example 303, 3-Benzo[1,3]dioxol-5-yl-4-(3,5-dimethoxy-benzyl)-5-hydroxy-5-(4-methoxy-phenyl)-5H-furan-2-one], the values for the IC50 at human ETB receptor and against ETA were 760 nM and 2.7 nM, respectively.

Consider `COc1ccc(C2(O)OC(=O)C(c3ccc4c(c3)OCO4)=C2Cc2ccc(OC)c(OC)c2)cc1` (stereo not shown) [Example 304, 3-Benzo[1,3]dioxol-5-yl-4-(3,4-dimethoxy-benzyl)-5-hydroxy-5-(4-methoxy-phenyl)-5H-furan-2-one], for which the IC50 at human ETB receptor was 950 nM; against ETA, 4.8 nM.

As to `COc1ccc(C2(O)OC(=O)C(c3ccc4c(c3)OCO4)=C2Cc2cc(OC)c(OC)cc2OC)cc1` (stereo not shown) [Example 306, 3Benzo[1,3]dioxol-5-yl-5-hydroxy-5-(4-methoxy-phenyl)-4-(2,4,5-trimethoxy-benzyl)-5H-furan-2-one], the IC50 was 850 nM at human ETB receptor and 2 nM against ETA.

For the molecule `COc1ccc(C2(O)OC(=O)C(c3ccc4c(c3)OCO4)=C2Cc2cc(OC)ccc2OC)cc1` (stereo not shown) [Example 307, 3-Benzo[1,3]dioxol-5-yl-4-(2,5-dimethoxy-benzyl)-5-hydroxy-5-(4-methoxy-phenyl)-5H-furan-2-one], the IC50 on human ETB receptor came out at 1000 nM; against ETA, 5.9 nM.

As to `COc1ccc(C2(O)OC(=O)C(c3ccc4c(c3)OCO4)=C2Cc2cccc(OC)c2OC)cc1` (stereo not shown) [Example 308, 3-Benzo[1,3]dioxol-5-yl-4-(2,3-dimethoxy-benzyl)-5-hydroxy-5-(4-methoxy-phenyl)-5H-furan-2-one], the IC50 at human ETB receptor is 2200 nM; against ETA, 16 nM.

The values above are taken from patent publication US5691373A, “Nonpeptide endothelin antagonists I” (Warner-Lambert Company, priority 1995, dated 1997).
